What was measured:
[1] = Formation of 1,5-cz-[M(Lig)] from Lig and M^II ions (metal dependent click-zip) (Charts 6, 7); type: physicochemical; conditions: MOPS/NaOH buffer pH 7.0; for conversion to 1,5-cz-[M(Lig)], Ca^II / conversion to 1,5-cz-[M(Lig)], Cd^II: TD728 in 50% i-PrOH
[2] = Formation of 1,5-cz-[M(Lig)] from Lig and M^III ions (metal dependent click-zip) (Charts 4, 5); type: physicochemical; conditions: MOPS/NaOH buffer pH 7.0, TD728, TD827 in 50% i-PrOH; for conversion to 1,5-cz-[M(Lig)], Y^III: TD714 sum of two diastereoisomers
[3] = Alkali metal dependent formation of 1,5-cz-Lig and 1,4-cz-Lig isomers from Lig at pH 10.2 (Chart 14); type: physicochemical; conditions: Borate/(M^I)2CO3 buffer pH 10.2
[4] = Formation of 1,5-cz-[Ln(Lig)] from Lig and Ln^III ions (metal dependent click-zip), MOPS/NaOH buffer pH 7.0, analytical HPLC (Charts 1, 2); conditions: MOPS/NaOH buffer pH 7.0
[5] = 1 hour at 80° C., TD714 sum of two diastereoisomers
[6] = B: 1 day at 80° C., visible analyte free precipitate

C#Cc1cccc(CN2CCN(CC(=O)O)CCN(Cc3cccc(CN=[N+]=[N-])n3)CCN(CP(=O)(O)O)CC2)n1 [TD714]
conversion to 1,5-cz-[M(Lig)], Ba^II ([1]; 1 week at 80° C.): 0%
conversion to 1,5-cz-[M(Lig)], Sr^II ([1]; 1 week at 80° C.): 0%
conversion to 1,5-cz-[M(Lig)], Ca^II ([1]; 1 week at 80° C.): 6%
conversion to 1,5-cz-[M(Lig)], Cd^II ([1]; 1 week at 80° C.): 92%
conversion to 1,5-cz-[M(Lig)], Ba^II ([1]; 1 hour at 80° C.): 0%
conversion to 1,5-cz-[M(Lig)], Sr^II ([1]; 1 hour at 80° C.): 0%
conversion to 1,5-cz-[M(Lig)], Ca^II ([1]; 1 hour at 80° C.): 0%
conversion to 1,5-cz-[M(Lig)], Cd^II [1, 5]: 89%
conversion to 1,5-cz-[M(Lig)], Y^III ([2]; 1 week at 80° C.): 89%
conversion to 1,5-cz-[M(Lig)], Y^III ([2]; 1 hour at 80° C.): 22%
conversion to 1,4-cz-Lig isomer, Cs^I ([3]; B: 1 day at 80° C.): 44%
conversion to 1,4-cz-Lig isomer, K^I ([3]; B: 1 day at 80° C.): 46%
conversion to 1,4-cz-Lig isomer, Na^I ([3]; B: 1 day at 80° C.): 7%
conversion to 1,4-cz-Lig isomer, Rb^I ([3]; B: 1 day at 80° C.): 45%
conversion to 1,5-cz-Lig isomer, Cs^I ([3]; B: 1 day at 80° C.): 9%
conversion to 1,5-cz-Lig isomer, K^I ([3]; B: 1 day at 80° C.): 10%
conversion to 1,5-cz-Lig isomer, Na^I ([3]; B: 1 day at 80° C.): 81%
conversion to 1,5-cz-Lig isomer, Rb^I ([3]; B: 1 day at 80° C.): 9%
conversion to 1,4-cz-Lig isomer, Li^I [3, 6]: 12%
conversion to 1,5-cz-Lig isomer, Li^I [3, 6]: 15%
conversion to 1,5-cz-[Ln(Lig)], Ce^III ([4]; after 1 week at 80° C.): 40%
conversion to 1,5-cz-[Ln(Lig)], Ce^III ([4]; after 1 hour at 80° C.): 1%
conversion to 1,5-cz-[Ln(Lig)], Dy^III ([4]; after 1 week at 80° C.): 91%
conversion to 1,5-cz-[Ln(Lig)], Dy^III ([4]; after 1 hour at 80° C.): 23%
conversion to 1,5-cz-[Ln(Lig)], Er^III ([4]; after 1 week at 80° C.): 93%
conversion to 1,5-cz-[Ln(Lig)], Er^III ([4]; after 1 hour at 80° C.): 34%
conversion to 1,5-cz-[Ln(Lig)], Eu^III ([4]; after 1 week at 80° C.): 85%
conversion to 1,5-cz-[Ln(Lig)], Eu^III ([4]; after 1 hour at 80° C.): 7%
conversion to 1,5-cz-[Ln(Lig)], Gd^III ([4]; after 1 week at 80° C.): 85%
conversion to 1,5-cz-[Ln(Lig)], Gd^III ([4]; after 1 hour at 80° C.): 9%
conversion to 1,5-cz-[Ln(Lig)], Ho^III ([4]; after 1 week at 80° C.): 93%
conversion to 1,5-cz-[Ln(Lig)], Ho^III ([4]; after 1 hour at 80° C.): 26%
conversion to 1,5-cz-[Ln(Lig)], La^III ([4]; after 1 week at 80° C.): 4%
conversion to 1,5-cz-[Ln(Lig)], La^III ([4]; after 1 hour at 80° C.): 0%
conversion to 1,5-cz-[Ln(Lig)], Lu^III ([4]; after 1 week at 80° C.): 93%
conversion to 1,5-cz-[Ln(Lig)], Lu^III ([4]; after 1 hour at 80° C.): 37%
conversion to 1,5-cz-[Ln(Lig)], Nd^III ([4]; after 1 week at 80° C.): 73%
conversion to 1,5-cz-[Ln(Lig)], Nd^III ([4]; after 1 hour at 80° C.): 3%
conversion to 1,5-cz-[Ln(Lig)], Pr^III ([4]; after 1 week at 80° C.): 80%
conversion to 1,5-cz-[Ln(Lig)], Pr^III ([4]; after 1 hour at 80° C.): 2%
conversion to 1,5-cz-[Ln(Lig)], Sm^III ([4]; after 1 week at 80° C.): 82%
conversion to 1,5-cz-[Ln(Lig)], Sm^III ([4]; after 1 hour at 80° C.): 5%
conversion to 1,5-cz-[Ln(Lig)], Tb^III ([4]; after 1 week at 80° C.): 92%
conversion to 1,5-cz-[Ln(Lig)], Tb^III ([4]; after 1 hour at 80° C.): 17%
conversion to 1,5-cz-[Ln(Lig)], Tm^III ([4]; after 1 week at 80° C.): 94%
conversion to 1,5-cz-[Ln(Lig)], Tm^III ([4]; after 1 hour at 80° C.): 40%
conversion to 1,5-cz-[Ln(Lig)], Yb^III ([4]; after 1 week at 80° C.): 93%
conversion to 1,5-cz-[Ln(Lig)], Yb^III ([4]; after 1 hour at 80° C.): 40%

C#Cc1cccc(CN2CCN(CP(=O)(O)c3ccccc3)CCN(Cc3cccc(CN=[N+]=[N-])n3)CCN(CP(=O)(O)c3ccccc3)CC2)n1 [TD921]
conversion to 1,5-cz-[M(Lig)], Ba^II ([1]; 1 week at 80° C.): 0%
conversion to 1,5-cz-[M(Lig)], Sr^II ([1]; 1 week at 80° C.): 0%
conversion to 1,5-cz-[M(Lig)], Ca^II ([1]; 1 week at 80° C.): 0%
conversion to 1,5-cz-[M(Lig)], Cd^II ([1]; 1 week at 80° C.): 96%
conversion to 1,5-cz-[M(Lig)], Ba^II ([1]; 1 hour at 80° C.): 0%
conversion to 1,5-cz-[M(Lig)], Sr^II ([1]; 1 hour at 80° C.): 0%
conversion to 1,5-cz-[M(Lig)], Ca^II ([1]; 1 hour at 80° C.): 0%
conversion to 1,5-cz-[M(Lig)], Cd^II [1, 5]: 92%
conversion to 1,5-cz-[M(Lig)], Sc^III ([2]; 1 week at 80° C.): 0%
conversion to 1,5-cz-[M(Lig)], Y^III ([2]; 1 week at 80° C.): 14%
conversion to 1,5-cz-[M(Lig)], Sc^III ([2]; 1 hour at 80° C.): 0%
conversion to 1,5-cz-[M(Lig)], Y^III ([2]; 1 hour at 80° C.): 0%
conversion to 1,4-cz-Lig isomer, Cs^I ([3]; A: 1 hour at 80° C.): 2%
conversion to 1,4-cz-Lig isomer, K^I ([3]; A: 1 hour at 80° C.): 2%
conversion to 1,4-cz-Lig isomer, Li^I ([3]; A: 1 hour at 80° C.): 1%
conversion to 1,4-cz-Lig isomer, Na^I ([3]; A: 1 hour at 80° C.): 2%
conversion to 1,4-cz-Lig isomer, Rb^I ([3]; A: 1 hour at 80° C.): 2%
conversion to 1,5-cz-Lig isomer, Cs^I ([3]; A: 1 hour at 80° C.): 2%
conversion to 1,5-cz-Lig isomer, K^I ([3]; A: 1 hour at 80° C.): 2%
conversion to 1,5-cz-Lig isomer, Li^I ([3]; A: 1 hour at 80° C.): 12%
conversion to 1,5-cz-Lig isomer, Na^I ([3]; A: 1 hour at 80° C.): 30%
conversion to 1,5-cz-Lig isomer, Rb^I ([3]; A: 1 hour at 80° C.): 2%
conversion to 1,4-cz-Lig isomer, Cs^I ([3]; B: 1 day at 80° C.): 31%
conversion to 1,4-cz-Lig isomer, K^I ([3]; B: 1 day at 80° C.): 31%
conversion to 1,4-cz-Lig isomer, Na^I ([3]; B: 1 day at 80° C.): 4%
conversion to 1,4-cz-Lig isomer, Rb^I ([3]; B: 1 day at 80° C.): 31%
conversion to 1,5-cz-Lig isomer, Cs^I ([3]; B: 1 day at 80° C.): 21%
conversion to 1,5-cz-Lig isomer, K^I ([3]; B: 1 day at 80° C.): 23%
conversion to 1,5-cz-Lig isomer, Na^I ([3]; B: 1 day at 80° C.): 89%
conversion to 1,5-cz-Lig isomer, Rb^I ([3]; B: 1 day at 80° C.): 21%
conversion to 1,4-cz-Lig isomer, Li^I [3, 6]: 6%
conversion to 1,5-cz-Lig isomer, Li^I [3, 6]: 86%
conversion to 1,5-cz-[Ln(Lig)], Ce^III ([4]; after 1 week at 80° C.): 0%
conversion to 1,5-cz-[Ln(Lig)], Ce^III ([4]; after 1 hour at 80° C.): 0%
conversion to 1,5-cz-[Ln(Lig)], Dy^III ([4]; after 1 week at 80° C.): 37%
conversion to 1,5-cz-[Ln(Lig)], Dy^III ([4]; after 1 hour at 80° C.): 1%
conversion to 1,5-cz-[Ln(Lig)], Er^III ([4]; after 1 week at 80° C.): 26%
conversion to 1,5-cz-[Ln(Lig)], Er^III ([4]; after 1 hour at 80° C.): 1%
conversion to 1,5-cz-[Ln(Lig)], Eu^III ([4]; after 1 week at 80° C.): 31%
conversion to 1,5-cz-[Ln(Lig)], Eu^III ([4]; after 1 hour at 80° C.): 1%
conversion to 1,5-cz-[Ln(Lig)], Gd^III ([4]; after 1 week at 80° C.): 28%
conversion to 1,5-cz-[Ln(Lig)], Gd^III ([4]; after 1 hour at 80° C.): 0%
conversion to 1,5-cz-[Ln(Lig)], Ho^III ([4]; after 1 week at 80° C.): 31%
conversion to 1,5-cz-[Ln(Lig)], Ho^III ([4]; after 1 hour at 80° C.): 1%
conversion to 1,5-cz-[Ln(Lig)], La^III ([4]; after 1 week at 80° C.): 0%
conversion to 1,5-cz-[Ln(Lig)], La^III ([4]; after 1 hour at 80° C.): 0%
conversion to 1,5-cz-[Ln(Lig)], Lu^III ([4]; after 1 week at 80° C.): 10%
conversion to 1,5-cz-[Ln(Lig)], Lu^III ([4]; after 1 hour at 80° C.): 1%
conversion to 1,5-cz-[Ln(Lig)], Nd^III ([4]; after 1 week at 80° C.): 43%
conversion to 1,5-cz-[Ln(Lig)], Nd^III ([4]; after 1 hour at 80° C.): 4%
conversion to 1,5-cz-[Ln(Lig)], Pr^III ([4]; after 1 week at 80° C.): 55%
conversion to 1,5-cz-[Ln(Lig)], Pr^III ([4]; after 1 hour at 80° C.): 5%
conversion to 1,5-cz-[Ln(Lig)], Sm^III ([4]; after 1 week at 80° C.): 42%
conversion to 1,5-cz-[Ln(Lig)], Sm^III ([4]; after 1 hour at 80° C.): 1%
conversion to 1,5-cz-[Ln(Lig)], Tb^III ([4]; after 1 week at 80° C.): 41%
conversion to 1,5-cz-[Ln(Lig)], Tb^III ([4]; after 1 hour at 80° C.): 1%
conversion to 1,5-cz-[Ln(Lig)], Tm^III ([4]; after 1 week at 80° C.): 18%
conversion to 1,5-cz-[Ln(Lig)], Tm^III ([4]; after 1 hour at 80° C.): 1%
conversion to 1,5-cz-[Ln(Lig)], Yb^III ([4]; after 1 week at 80° C.): 15%
conversion to 1,5-cz-[Ln(Lig)], Yb^III ([4]; after 1 hour at 80° C.): 1%
